Test results: patent publication US8207127B2, “Compounds for enzyme inhibition” (Onyx Technologies, Inc., priority 2004, dated 2012)

Legend:
[1] = target: 20S proteasome chymotrypsin-like activity (CT-L) (Homo sapiens, UniProt P20618+P28074); assay: 20S proteasome chymotrypsin-like (CT-L) activity inhibition; type: biochemical; details: chymotrypsin-like activity of 20S proteasome
Method: The enzyme inhibitor analogs and prodrugs disclosed herein are useful in part because they inhibit the action of the 20S proteasome. […] That is, the instant compounds show selectivities for the 20S proteasome over other proteases such as cathepsins, calpains, papain, chymotrypsin, trypsin, tripeptidyl pepsidase II. The selectivities of the enzyme inhibitors for 20S proteasome are such that at concentrations below about 50 μM, the enzyme inhibitors show inhibition of the catalytic activity of the 20S proteasome, while not showing inhibition of the catalytic activity of other proteases such as cathepsins, calpains, papain, chymotrypsin, trypsin, tripeptidyl pepsidase II. In preferred embodiments, the enzyme inhibitors show inhibition of the catalytic activity of the 20S proteasome at concentrations below about 10 μM, while not showing inhibition of the catalytic activity of other proteases at these concentrations. In even more preferred embodiments, the enzyme inhibitors show inhibition of the catalytic activity of the 20S proteasome at concentrations below about 1 μM, while not showing inhibition of the catalytic activity of other proteases at these concentrations. Enzyme kinetic assays are disclosed in U.S. application Ser. No. 09/569,748, Example 2 and Stein et al., Biochem. (1996), 35, 3899-3908.
The chymotrypsin-like activity of 20S proteasome is characterized by cleavage of peptides in the immediate vicinity of large hydrophobic residues. In particular, the chymotrypsin-like activity of Ntn hydrolases can be determined by cleavage of a standard substrate. Examples of such substrates are known in the art. For example, a leucylleucylvalinyltyrosine derivative can be used. Enzyme kinetic assays are disclosed in U.S. application Ser. No. 09/569,748, Example 2 and Stein et al., Biochem. (1996), 35, 3899-3908.

[2] = target: T1, proteasome chymotrypsin-like activity (CT-L) (Homo sapiens, UniProt P28074); assay: Cell-based CT-L proteasome activity inhibition
T1 construct: endogenous in cells
T1 sequence (P28074 60-263): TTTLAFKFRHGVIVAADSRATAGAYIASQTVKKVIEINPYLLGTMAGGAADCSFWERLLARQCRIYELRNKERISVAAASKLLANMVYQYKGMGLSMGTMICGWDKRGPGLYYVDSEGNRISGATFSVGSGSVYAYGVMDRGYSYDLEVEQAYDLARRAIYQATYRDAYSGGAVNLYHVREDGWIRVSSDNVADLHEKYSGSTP

SMILES | IC50 [1] | IC50 [2]
CC(C)C[C@H](NC(=O)[C@H](CCc1ccccc1)NC(=O)CO)C(=O)N[C@@H](Cc1ccccc1)C(=O)N[C@@H](CC(C)C)C(=O)[C@@]1(C)CO1 [Compound 1] | < 50 nM | < 100 nM
CC(C)C[C@H](NC(=O)[C@H](CCc1ccccc1)NC(=O)CCCN(C)C)C(=O)N[C@@H](Cc1ccccc1)C(=O)N[C@@H](CC(C)C)C(=O)[C@@]1(C)CO1 [Compound 7] | < 50 nM | < 150 nM
Cc1nn(C)c(C)c1S(=O)(=O)N[C@@H](CCc1ccccc1)C(=O)N[C@@H](CC(C)C)C(=O)N[C@@H](Cc1ccccc1)C(=O)N[C@@H](CC(C)C)C(=O)[C@@]1(C)CO1 [Compound 8] | < 100 nM | < 100 nM
CC(C)C[C@H](NC(=O)[C@H](CCc1ccccc1)NC(=O)CN1CCCCC1)C(=O)N[C@@H](Cc1ccccc1)C(=O)N[C@@H](CC(C)C)C(=O)[C@@]1(C)CO1 [Compound 4] | < 100 nM | < 100 nM
